Results reported in patent publication US7998969B2, “Non-nucleoside reverse transcriptase inhibitors” (Roche Palo Alto LLC, priority 2006, dated 2011).
Read-outs that look alike come from different tables or passages of the source.

What was measured:
[1] = tested on: wild-type laboratory strain HIV-1HXB2; assay: Recombinant HIV-1 Antiviral Assay (MTT cell viability assay with MT-4 cells); type: cell-based; settings: Human immunodeficiency virus 1, MT4, 120 h
Experimental: Recombinant HIV-1 Antiviral Assay
The sensitivity of a wild-type laboratory strain HIV-1HXB2 to described compounds was determined by the 3-[4,5-dimethylthiazol-2yl]-2,5-diphenyltetrazolium bromide (MTT) cell viability assay with MT-4 cells (R. Pauwels et al., “Rapid and automated tetrazolium-based colorimetric assay for the detection of anti-HIV compounds,” J. Virological Methods 1988 20:309-321). Briefly, MT-4 cells were incubated with virus (MOI 0.0001) for 1 h at 37° C. and then resuspended at 7.5×10^5/mL in RPMI 1640 (with out phenol) (Gibco) with 10% FCS and antibiotics and plated out onto a 96 well plate (Corning Costar, USA). After 5 days incubation 20 μL of MTT (Sigma-Aldrich) (5 mg/mL in PBS) was added and the plates were incubated for 2 h before the addition of 170 μL of acidified IPA. The absorbance was measured at 540 nm and the TCID50 determined by Spearman-Karber method.

[2] = biological target: HIV-1 reverse transcriptase (HIV-RT enzyme) (Human immunodeficiency virus type 1 group M subtype B, UniProt P03366); assay: HIV-1 Reverse Transcriptase Assay Inhibitor IC50 Determination (RNA-dependent DNA polymerase activity, SPA); type: biochemical
Experimental: HIV-1 Reverse Transcriptase Assay Inhibitor IC50 Determination
RNA-dependent DNA polymerase activity was measured using a biotinylated primer oligonucleotide and tritiated dNTP substrate. Newly synthesized DNA was quantified by capturing the biotinylated primer molecules on streptavidin coated Scintillation Proximity Assay (SPA) beads (Amersham). The sequences of the polymerase assay substrate were: 18 nt DNA primer, 5′-Biotin/GTC CCT GTT CGG GCG CCA-3′; 47 nt RNA template, 5′-GGGUCUCUCUGGUUAGACCACUCUAGCAGUGGCGCCCGAACAGGGAC-3′. The biotinylated DNA primer was obtained from the Integrated DNA Technologies Inc. and the RNA template was synthesized by Dharmacon. The DNA polymerase assay (final volume 50 μl) contained 32 nM biotinylated DNA primer, 64 nM RNA substrate, dGTP, dCTP, dTTP (each at 5 μM), 103 nM [^3H]-dATP (specific activity=[…]), in 45 mM Tris-HCl, pH 8.0, 45 mM NaCl, 2.7 mM Mg(CH3COO)2, 0.045% Triton X-100 w/v, 0.9 mM EDTA. The reactions contained 5 μl of serial compound dilutions in 100% DMSO for IC50 determination and the final concentrations of DMSO were 10%. Reactions were initiated by the addition of […] of the HIV-RT enzyme (final concentrations of 1-3 nM). Protein concentrations were adjusted to provide linear product formation for at least 30 min of incubation. After incubation at 30° for 30 min, the reaction was quenched by addition of 50 μl of 200 mM EDTA (pH 8.0) and 2 mg/ml SA-PVT SPA beads (Amersham, RPNQ0009, reconstituted in 20 mM Tris-HCl, pH 8.0, 100 mM EDTA and 1% BSA). The beads were left to settle overnight and the SPA signals were counted in a 96-well top counter-NXT (Packard). IC50 values were obtained by sigmoidal regression analysis using GraphPad Prism 3.0 (GraphPad Software, Inc.).

[3] = MT-4 cells infected with HIV-1HXB2, MTT readout after 5 days, read-out: Antiviral Activity IC50
[4] = SPA polymerase assay, 30 min at 30°, read-out: HIVRT inhibition IC50

Row | SMILES | IC50 [1, 3] [µM] | IC50 [2] [nM] | IC50 [2, 4] [nM] | other results
1 | Cc1cc(C#N)cc(C)c1Nc1nc(NC2CCN(c3cccc(C(N)=O)c3)CC2)ncc1Br [V-5] | 0.0015 | 28.1 |  | 
2 | Cc1cc(C#N)cc(C)c1Oc1ccnc(NC2CCN(Cc3ccc(S(C)(=O)=O)cc3)CC2)n1 [I-3, 4-{2-[1-(4-Methanesulfonyl-benzyl)-piperidin-4-ylamino]-pyrimidin-4-yloxy}-3,5-dimethyl-benzonitrile] | 0.003 | 34.1 |  | 
3 | Cc1cc(C#N)cc(Cl)c1Oc1nc(NC2CCN(c3cccc(C(N)=O)c3)CC2)ncc1Br [IV-13] | 0.0058 | 27.9 |  | 
4 | Cc1cc(C#N)cc(C)c1Nc1nc(NC2CCN(c3cccc(C#N)c3)CC2)ncc1Br [V-3] |  |  | 40 | 
5 | Cc1cc(C#N)cc(C)c1Oc1ccnc(NC2CCN(c3cccc(S(N)(=O)=O)c3)CC2)n1 [IV-3] | 0.0004 | 14.7 |  | 
6 | Cc1cc(C#N)cc(C)c1Oc1nc(NC2CCN(Cc3ccccc3)CC2)ncc1Br [I-2, 4-[2-(1-Benzyl-piperidin-4-ylamino)-5-bromo-pyrimidin-4-yloxy]-3,5-dimethyl-benzonitrile] |  |  |  | melting point: 158 to 159.8 °C
7 | Cc1cc(C#N)cc(C)c1Oc1ccnc(NC2CCN(c3cc(Cl)cc(C#N)c3)CC2)n1 [IV-23] |  |  | 37.7 | 
8 | Cc1cc(C#N)cc(C)c1Oc1ccnc(NC2CCN(Cc3ccccc3)CC2)n1 [I-1, 4-[2-(1-Benzyl-piperidin-4-ylamino)-pyrimidin-4-yloxy]-3,5-dimethyl-benzonitrile] |  |  |  | melting point: 162 to 163.3 °C
9 | Cc1cc(C#N)cc(C)c1Oc1nc(NC2CCN(Cc3ccc(S(N)(=O)=O)cc3Cl)CC2)nc(N)c1Br [II-1] |  |  | 105 | IC50 ([1]; read-out: Antiviral Activity IC50(μM)): 0.0086 µM
10 | Cc1cc(C#N)cc(C)c1Nc1ccnc(NC2CCN(Cc3ccc(S(C)(=O)=O)cc3Cl)CC2)n1 [III-1, 4-{2-[1-(2-Chloro-4-methanesulfonyl-benzyl)-piperidin-4-ylamino]-pyrimidin-4-ylamino}-3,5-dimethyl-benzonitrile] | 0.0022 | 25.7 |  | 
